Measured values from US12227551B2, “Membrane bound IL12 compositions and methods for tunable regulation” (Obsidian Therapeutics, Inc., priority 2018, dated 2025).

Tested on: primary human T cells
Assay: Surface CAR and surface IL12 in CAR+ gate after 20 hours vardenafil, CD19-CAR-P2A-mbIL12-PDE5 constructs (Example 8; Table 22)
Assay type: cell-based
Conditions: 5 μM Vardenafil, CAR+ cell gate, regulated CD19-CAR-P2A-mbIL12-PDE5 constructs
Description: On day 0, primary human T cells were stimulated with Dynabeads (T-expander CD3/CD28) at a 3:1 bead: cell ratio in media containing 10% fetal bovine serum (FBS). The next day, lentivirus produced with constructs OT-001407 (CAR only control), OT-001895, OT-001894, OT-001891, OT-002044 were added in the presence of reduced serum (5% FBS). On day 2, the cells were diluted 1:2 with fresh 10% FBS media. […] After overnight incubation, transduction efficiency was analyzed by flow cytometry using CD19-Fc to detect surface CAR expression. Surface IL12 expression within the CAR+ cell gate was detected with an anti-IL12p70 antibody (BD, Franklin Lakes, N.J.) and is shown in Table 22.

CCCc1nc(C)c2c(=O)[nH]c(-c3cc(S(=O)(=O)N4CCN(CC)CC4)ccc3OCC)nn12 [vardenafil, Vardenafil]
increases in expression of surface IL12 compared to vehicle control: 17-24 fold
